Assay results taken from the supplement of paper PMC10949913.
Where “and” joins values, the source holds several entries; their conditions need not be identical. Identical values can stand only once.

Key:
[1] = system: NCI-H295R; test: area under concentration-response curve (viability) (AUC (a.u.)); higher = less active; conditions: 48 h
Procedure, shortened: (§1)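 Three adrenocortical carcinoma cell lines were plated in 1,536-well plates at 500–1,000 cells/well in 5 µL medium, and 23 nL of each library compound was added at 11 concentrations. After 48 h, CellTiter-Glo was applied for 15 minutes at room temperature before luminescence was read. Each plate's signals were normalised to vehicle and empty-well controls. AC50 and area under the curve were taken from fitted concentration-response curves, with only inhibitory or non-responding curve classes retained.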

[2] = system: CU-ACC1; test: as above; conditions: 48 h
Procedure, shortened: as §1

Row | Compound | area under concentration-response curve [1] | area under concentration-response curve [2]
1 | CCN(C1CCOCC1)C2=C(C)C(=CC(=C2)C3=CC=C(CN4CCOCC4)C=C3)C(=O)NC\C5=C(C)\C=C(C)/NC5=O | 249 | 262
2 | C[C@H](NC(=O)Cc1cc(F)cc(F)c1)C(=O)N[C@@H]1C(=O)N(C)c2ccccc2-c2ccccc21 | 528 | 516
3 | O=C(O)CCc1ccc(NCc2cccc(Oc3ccccc3)c2)cc1 | 599 | 546
4 | CC\12CCC(=O)\C=C1CCC3C2CCC4(C)C3CCC4(O)C#C (configuration not stated) | 440 | 
5 | OC[C@H]1O[C@@H](Oc2cc(O)cc(/C=C/c3ccc(O)cc3)c2)[C@H](O)[C@@H](O)[C@@H]1O | 579 | 
6 | CCc1ccc(CCOc2ccc(CC3SC(=O)NC3=O)cc2)nc1 (configuration not stated) | 110 | 112
7 | CNC(=O)c1cc(Oc2ccc(NC(=O)Nc3cc(C(C)(C)C)nn3-c3ccc4ncccc4c3)c(F)c2)ccn1 | 561 | 496
8 | CN(C)C1=C(Br)C=C(C=C1)C\2NC3=C(\C4=C2C(=O)CC(C)(C)C4)C5=CC=CC=C5C=C3 (configuration not stated) | 515 | 506
9 | CNC(=O)[C@H]1O[C@@H](n2cnc3c(NCc4cccc(I)c4)nc(Cl)nc32)[C@H](O)[C@@H]1O | 366 | 
10 | Cc1ccc(Nc2cc(-c3cccc(N4C(=O)c5ccccc5C4=O)c3)ncn2)cc1N[S+](C)(=O)[O-] | 490 | 462
11 | O=[S+]([O-])(F)Cc1ccccc1 | 517 | 510
12 | O=C(O)/C(S)=C/c1ccc(I)cc1 | 459 | 368
13 | CC(=O)CC(C1=CC=CC=C1)C/2=C(O)/C3=CC=CC=C3OC2=O (configuration not stated) | 533 | 491
14 | CC(C)Nc1cc(C(F)(F)F)cc2nc(NC(=O)c3cccnc3)nn12 | 412 | 373
15 | Cc1c[nH]c(-c2cnc(NCCNc3ccc(C#N)cn3)nc2-c2ccc(Cl)cc2Cl)n1 | 558 | 538
16 | COC1=C(OC)C(=O)C(C/C=C(\C)CC/C=C(\C)CC/C=C(\C)CC/C=C(/C)CC/C=C(\C)CC/C=C(\C)CC/C=C(\C)CC/C=C(\C)CC/C=C(\C)CCC=C(C)C)=C(C)C1=O | 559 | 502
17 | O=C(O)c1cc(/N=N/c2ccc(S(=O)(=O)Nc3ccccn3)cc2)ccc1O | 522 | 505
18 | CO[C@H]1CC[C@]2(CC1)CC3=C(C=C(C=C3)C4=CN=CC(=C4)C#CC)[C@@]2/5\N=C(C)/C(=N5)N | 532 | 487
19 | Nc1nc2cc(-c3ccc4ncc(C(=O)N5CCOCC5)n4c3)ccc2o1 | 478 | 514
20 | C[C@@H]1C(=O)O[C@H]2CC34[C@H]5C[C@@H](C(C)(C)C)C36[C@@H](OC(=O)[C@@H]6O)O[C@@]4(C(=O)O5)[C@]21O (some centres not stated) | 21.9 | 
21 | Cc1c(CCOc2ccc(C(=O)O)cc2)c2cc(Cl)ccc2n1C(c1ccccc1)c1ccccc1 | 600 | 536
22 | C/C(O)=C(\C#N)C(=O)Nc1cc(Br)ccc1Br | 456 | 446
23 | O=P1(NCCCl)OCCCN1CCCl (configuration not stated) | 553 | 

Row | Compound | area under concentration-response curve [1] | area under concentration-response curve [2]
24 | CCCCC[C@H](O)/C=C/[C@H]1[C@H](O)CC(=O)[C@@H]1C/C=C\CCCC(=O)O | 529 | 485
25 | O=c1[nH]c2ccccc2n1CCCN1CCC(n2c(=O)[nH]c3cc(Cl)ccc32)CC1 | 539 | 
26 | CNCc1ccc(-c2cc(-c3nc(-c4ccc([S+](=O)([O-])C(C)C)cc4)cnc3N)on2)cc1 | 413 | 
27 | CCC[S+](=O)([O-])Nc1ccc(F)c(C(=O)c2c[nH]c3ncc(-c4ccc(Cl)cc4)cc23)c1F | 556 | 
28 | O=C(O)CCCCCC(=O)NN=C1CCCC1 | 548 | 
29 | OC1=CC(=C(C=C1)\C2=C(O)\C(=O)C3=C(O2)C=C(O)C=C3O)O | 591 | 
30 | C=CC(=O)N1CCC[C@@H](n2nc(-c3ccc(Oc4ccccc4)cc3)c3c(N)ncnc32)C1 | 459 | 
31 | CCOC(=O)c1ncn2c1CN(C)C(=O)c1cc(F)ccc1-2 | 532 | 
32 | CCOC(=O)C(C#N)C\1C2=CC(=CC=C2O\C(=C1C(=O)OCC)N)Br (configuration not stated) | 569 | 
33 | COc1ncc(-c2ccc3c(Nc4cc(Oc5cc(F)cc(F)c5)cc(C(=O)O)c4)c([S+](=O)([O-])NC4CC4)cnc3c2)c(OC)n1 | 516 | 
34 | O=[S+]([O-])(CC1CS1)c1ccc(Oc2ccccc2)cc1 (configuration not stated) | 542 | 
35 | O=C(CCc1ccc(O)cc1)c1c(O)cc(O)cc1O[C@@H]1O[C@H](CO)[C@@H](O)[C@H](O)[C@H]1O | 242 | 
36 | O=C(O)c1ccc(-c2c[nH]c3ncc(-c4ccccc4)cc23)cc1C1CCCC1 | 501 | 
37 | COc1ccc(-c2cnc3c(-c4cccc5ncccc45)cnn3c2)cc1 | 595 | 
38 | CC1OC(OC/2=C(/OC3=C(C(=CC(=C3)O)O)C2=O)C4=CC=C(O)C=C4)C(O)C(OC(C)=O)C1OC(C)=O (configuration not stated) | 289 | 
39 | CCc1cc(C(N)=S)ccn1 | 552 | 
40 | CN(C)Cc1cccc(N/C(=C2\C(=O)Nc3cc(C(=O)N(C)C)ccc32)c2ccccc2)c1 | 558 | 
41 | CCCN[C@H]1CCc2nc(N)sc2C1 | 566 | 
42 | O=C(O)CCCc1c[nH]c2ccccc12 | 400 | 
43 | CCN(CCO)CCCC(C)Nc1ccnc2cc(Cl)ccc12 (configuration not stated) | 368 | 
44 | N[S+](=O)([O-])c1ccc(Nc2nc(OCC3CCCCC3)c3[nH]cnc3n2)cc1 | 554 | 
45 | Cc1c(C)n(Cc2ccc(-c3ccccc3C(=O)O)cc2)c2ccc(C(=O)N[C@@H](C)c3ccc([N+](=O)[O-])cc3)cc12 | 402 | 
46 | CC(C)[S+](=O)([O-])c1ccc2nccc(Nc3ccc4scnc4c3)c2c1 | 491 | 

Row | Compound | area under concentration-response curve [1] | area under concentration-response curve [2]
47 | CCCN(CCC)C(=O)C\1=C\C2=CC=C(C=C2\N=C(N)/C1)C3=CC=C(C=C3)C(=O)N4CCCC4 | 581 | 
48 | CSC1=CC(=CC=C1)NC2=NC3=C(C=N2)/C=C(C(=O)N3C)/C4=C(Cl)C=CC=C4Cl | 495 | 
49 | O=C(O)CCCCC(CCSCc1ccccc1)SCc1ccccc1 (configuration not stated) | 589 | 
50 | C=CCN1C[C@H](C(=O)N(CCCN(C)C)C(=O)NCC)CC2c3cccc4[nH]cc(c34)C[C@H]21 (some centres not stated) | 545 | 
51 | CN(C)CCNC(=O)COc1c2cccc1Cc1cccc(c1OCC(=O)NCCN(C)C)Cc1cccc(c1OCC(=O)NCCN(C)C)Cc1cccc(c1OCC(=O)NCCN(C)C)C2 | 485 | 
52 | C/C=C(/C(=C/C)c1ccc(O)cc1)c1ccc(O)cc1 | 366 | 
53 | CC1(C)CCC2(CC1)N[C@@H](C(=O)N[C@@H]1CC[C@@H](C(N)=O)OC1)[C@H](c1ccnc(Cl)c1F)[C@]21C(=O)Nc2cc(Cl)ccc21 |  | 501
54 | OC1=CC=C(C=C1)\C2=C\OC3=C(C=CC(=C3)O)C2=O | 565 | 
55 | CCOC(=O)c1ccc(C#Cc2ccc3c(c2)C(C)(C)CCS3)nc1 |  | 505
56 | OC[C@H]1O[C@H]([C@H](O)[C@@H](O)[C@@H]1O)C2=C(O)C=CC3=C2O/C=C(C3=O)/C4=CC=C(O)C=C4 | 540 | 
57 | Clc1ccc(Nc2nnc(Cc3ccncc3)c3ccccc23)cc1 | 295 | 
58 | CN1\N=N/C2=C(N=C[N]2C1=O)C(N)=O | 581 | 
59 | Cc1ccc(-c2ncc(Cl)cc2-c2ccc([S+](C)(=O)[O-])cc2)cn1 |  | 366
60 | NC(=O)c1ncn([C@@H]2O[C@H](CO)[C@@H](O)[C@H]2O)c1O | 401 and 302 | 
61 | OC1=CC=C(C=C1)\C2=C\C(=O)C3=C(O2)C=C(O)C=C3O | 389 | 
62 | CCN1CCN(C(=O)N[C@@H](C(=O)N[C@H]2[C@H]3SC\C(=C(/N3C2=O)C(O)=O)CSC4=NN=N[N]4C)C5=CC=C(O)C=C5)C(=O)C1=O | 269 | 
63 | COc1ccc(N(C(=O)Oc2c(C)cccc2C)c2ccnc(Nc3ccc(N4CCN(C)CC4)cc3)n2)c(OC)c1 | 545 | 
64 | CC(C)Oc1ccc2c(=O)c(-c3ccccc3)coc2c1 | 559 | 
65 | NC(=O)c1c(OCc2c(F)cc(Br)cc2F)nsc1NC(=O)NCCCCN1CCCC1 |  | 395
66 | CC(C)(O)c1coc([S+](=O)([O-])NC(=O)Nc2c3c(cc4c2CCC4)CCC3)c1 | 555 | 
67 | CC[C@H]1OC(=O)[C@H](C)[C@@H](O[C@H]2C[C@@](C)(OC)[C@@H](O)[C@H](C)O2)[C@H](C)[C@@H](O[C@@H]2O[C@H](C)C[C@H](N(C)C)[C@H]2O)[C@](C)(O)C[C@@H](C)CN(C)[C@H](C)[C@@H](O)[C@]1(C)O |  | 310
68 | COc1cc2c(cc1O)CC[C@@H]1[C@@H]2CC[C@]2(C)[C@@H](O)CC[C@@H]12 | 383 | 
